According to US7163689B2, “Intravenous valproate for acute treatment of migraine headache” (priority 1999, dated 2007):
“And” between values parts separate entries of the source, which are not always exact repeats. Equal entries are not always repeated. “Also recorded” adds a separate entry of the source.

How the values were obtained:
Type in all cases: in vivo, human
[1] = tested on: patients with prolonged moderate to severe migraine; assay: Further expanded study (N=40): Depacon vs DHE preceded by metoclopramide, prolonged moderate to severe migraine (Example 3); details: for Headache Severity (group value, four grade rating) / Number of Patients Who Reported Nausea / Number of Patients Who Reported Phonophobia / Number of Patients Who Reported Photophobia / Responder Rate / Symptom Free patients (no headache or associated symptomatology), % / Symptom Free patients (no headache or associated symptomatology), number: N = 20 per group
Source text: This Example describes a further expanded study and analysis of the effectiveness of intravenous VPA for the treatment of acute migraine headache of significant duration. Patient data from the study described in Examples 1 and 2 have been incorporated and further analyzed in addition to new patient data. • Design and Methods. Participants (N=40) were from age 14 to 74 and were established patients of the Western New England Headache Clinic. Patients called to report the pressure of prolonged moderate to severe migraine. They had no evidence of conditions other than migraine to cause headache and were medically stable. […] Patients received a neurological and general physical examination and filled out a four grade baseline headache rating from developed by Western New England Headache Clinic (see Table 2). The patients then received either 500 mg Depacon™ over 15–30 minutes administered in 100 ccs D5W, or 1 mg DHE intramuscularly preceded by 10 mg metoclopramide intramuscularly. Headache severity and associated symptomatology were rated 1, 2, and 4 hours. Results. A total of 40 patients were randomized, 20 in the Depacon™ group and 20 in the DHE group. Table VII summarizes the number of patients in each group by severity of headache (moderate or severe), demographic data and medication assignment.

[2] = tested on: patients with moderate to severe migraine headaches of duration of 24 to 96 hrs; assay: Pilot study: IV valproate vs IM DHE with metoclopramide for abortive treatment of acute migraine headache (Example 1); details: individual patient, grade 0-3; 24-h; sodium
[3] = tested on: patients with moderate to severe migraine headaches of duration of 24 to 96 hrs; assay: as above; details: for % Headache Relief: 5 patients per group; for Headache Severity / Nausea/vomiting / Phonophobia / Photophobia: individual patient; for Headache Severity: grade 0-3; for Nausea/vomiting / Phonophobia / Photophobia: presence
Source text: This Example describes the results of a pilot study using intravenous valproate for abortive treatment of acute migraine headache. • Methods. Patients with established diagnosis of migraine with and without aura were considered for randomization to intravenous (“IV”) valproate (“VPA”) or intramuscular (“IM”) dihydroergotamine (“DHE”) with metoclopramide, also referred to herein as […]®, for patients with moderate to severe migraine headaches of duration of 24 to 96 hrs. Patients received intravenous infusion of 500 mgs of valproate over 30 mins or 1 mg DHE with 10 mgs metoclopramide IM. Headache severity, presence of nausea, phonophobia and photophobia were rated at baseline, 1 hr, 2 hrs, and 4 hrs. Table I and II. There were 5 patients in each group. • Results. Of the 5 patients receiving valproate, 4 of the 5 had response of their headaches from moderate or severe to none or mild at 1 hr, 2 hrs, and 4 hrs. Of the 5 patients receiving DHE, 3 of the 5 patients had headache response to moderate or severe to mild or none at 1 hr, 2 hrs, and 4 hrs. Table III. […] In the DHE group, 2 of 5 had nausea at baseline, and 1 had nausea at 1 hr, 2 hrs, and 4 hrs. Table IVa. […] In the DHE group, 3 of 5 had relief of photophobia at 1 hr, 4 of 5 had relief at 2 hrs and 4 hrs. […] In the DHE group, 2 of 5 had relief of phonophobia at 1 hr, and 3 of 5 had relief of phonophobia at 2 hrs and 4 hrs. Table IVb. • Conclusions. Intravenous valproate is an alternative therapy for abortive treatment of moderate to severe prolonged acute migraine headache. Anti-convulsant mechanisms may be relevant to treatment of headache symptomatology.

[4] = tested on: patients with moderate to severe headaches of 24–72 hours duration; assay: Expanded study: IV VPA vs DHE with metoclopramide IM, acute migraine headache (Example 2); details: 24-h

CCCC(CCC)C(=O)[O-].[Na+] [Depacon, valproate sodium]
adverse events ([1]; 20 patients receiving 500 mg Depacon given during 15 to 30 minutes infusion, sodium): remarkably free of adverse event; also recorded: no adverse events | % of Patients Who Reported Nausea ([1]; 1 hour): 53% | % of Patients Who Reported Phonophobia ([1]; 1 hour): 74% | % of Patients Who Reported Photophobia ([1]; 1 hour): 70% | % of Patients Who Reported Nausea ([1]; 2 hours): 53% | % of Patients Who Reported Phonophobia ([1]; 2 hours): 58% | % of Patients Who Reported Photophobia ([1]; 2 hours): 50% | % of Patients Who Reported Nausea ([1]; 4 hours): 47% | % of Patients Who Reported Phonophobia ([1]; 4 hours): 53% | % of Patients Who Reported Photophobia ([1]; 4 hours): 45% | % of Patients Who Reported Nausea ([1]; Baseline): 75% | % of Patients Who Reported Phonophobia ([1]; Baseline): 95% | % of Patients Who Reported Photophobia ([1]; Baseline): 100% | Headache Severity (group value, four grade rating) ([1]; 1 hour): 1.8 | Number of Patients Who Reported Nausea ([1]; 1 hour): 8 | Number of Patients Who Reported Phonophobia ([1]; 1 hour): 14 | Number of Patients Who Reported Photophobia ([1]; 1 hour): 14 | Responder Rate ([1]; 1 hour): 50% | Headache Severity (group value, four grade rating) ([1]; 2 hours): 1.5 | Number of Patients Who Reported Nausea ([1]; 2 hours): 8 | Number of Patients Who Reported Phonophobia ([1]; 2 hours): 11 | Number of Patients Who Reported Photophobia ([1]; 2 hours): 10 | Responder Rate ([1]; 2 hours): 60% | Headache Severity (group value, four grade rating) ([1]; 4 hours): 1.4 | Number of Patients Who Reported Nausea ([1]; 4 hours): 7 | Number of Patients Who Reported Phonophobia ([1]; 4 hours): 10 | Number of Patients Who Reported Photophobia ([1]; 4 hours): 9 | Responder Rate ([1]; 4 hours): 60% | Headache Severity (group value, four grade rating) ([1]; Baseline): 2.7 | Number of Patients Who Reported Nausea ([1]; Baseline): 15 | Number of Patients Who Reported Phonophobia ([1]; Baseline): 19 | Number of Patients Who Reported Photophobia ([1]; Baseline): 20 | Symptom Free patients (no headache or associated symptomatology), % ([1]; at 1 hour): 10% | Symptom Free patients (no headache or associated symptomatology), number ([1]; at 1 hour): 2 | Symptom Free patients (no headache or associated symptomatology), % ([1]; at 2 hours): 15% | Symptom Free patients (no headache or associated symptomatology), number ([1]; at 2 hours): 3 | Symptom Free patients (no headache or associated symptomatology), % ([1]; at 4 hours): 25% | Symptom Free patients (no headache or associated symptomatology), number ([1]; at 4 hours): 5 | response of associated symptomatology compared with the DHE group ([1]; baseline, 1, 2 and 4 hours, P>0.05): responded somewhat better, although not statistically significantly | Headache Severity [2]: 1 and 2 (2×) and 3 and 0 | % experiencing Nausea ([3]; 0-h (baseline)): 80% | % experiencing Photophobia ([3]; 0-h (baseline)): 100% | % experiencing phonphobia ([3]; 0-h (baseline)): 80% | % experiencing Nausea ([3]; 1-h): 20% | % experiencing Photophobia ([3]; 1-h): 20% | % experiencing phonphobia ([3]; 1-h): 20% | % experiencing Nausea ([3]; 2-h): 20% | % experiencing Photophobia ([3]; 2-h): 20% | % experiencing phonphobia ([3]; 2-h): 20% | % experiencing Nausea ([3]; 4-h): 0% | % experiencing Photophobia ([3]; 4-h): 0% | % experiencing phonphobia ([3]; 4-h): 0% | % Headache Relief ([3]; 1-h): 60% | % Headache Relief ([3]; 2-h): 100% | % Headache Relief ([3]; 4-h): 80% | % Headache Relief ([3]; 24-h): 40% | % experiencing Nausea ([3]; 24-h): 40% | % experiencing Photophobia ([3]; 24-h): 40% | % experiencing phonphobia ([3]; 24-h): 40% | Headache Severity ([3]; 0-h (baseline), Depacon IV 500 mg or DHE 1 mg + Reglan 10 mg, sodium): 3 (3×) and 2 (2×) | Headache Severity ([3]; 1-h, sodium): 1 (2×) and 0 (2×) and 2 | Headache Severity ([3]; 2-h, sodium): 1 (4×) and 0 | Headache Severity ([3]; 4-h, sodium): 0 (3×) and 1 and 2 | Nausea/vomiting ([3]; 0-h (baseline), sodium): 0 | Phonophobia ([3]; 0-h (baseline), sodium): 0 | Nausea/vomiting ([3]; 1-h, sodium): 0 | Phonophobia ([3]; 1-h, sodium): 0 | Photophobia ([3]; 1-h, sodium): 0 | Nausea/vomiting ([3]; 2-h, sodium): 0 | Phonophobia ([3]; 2-h, sodium): 0 | Photophobia ([3]; 2-h, sodium): 0 | Nausea/vomiting ([3]; 4-h): 0 | Phonophobia ([3]; 4-h): 0 | Photophobia ([3]; 4-h): 0 | Nausea/vomiting ([3]; 24-h, sodium): 0 | Phonophobia ([3]; 24-h, sodium): 0 | Photophobia ([3]; 24-h, sodium): 0 | patients who had nausea ([3]; of 5 patients, 1 hr): 1 | patients who had relief of phonophobia ([3]; of 5 patients, 1 hr): 4 of 5 | patients who had relief of photophobia ([3]; of 5 patients, 1 hr): 4 of 5 | patients with response of headache from moderate or severe to none or mild ([3]; of 5 patients, 1 hr): 4 of the 5 | patients who had nausea ([3]; of 5 patients, 2 hrs): 1 | patients who had relief of phonophobia ([3]; of 5 patients, 2 hrs): 4 of 5 | patients who had relief of photophobia ([3]; of 5 patients, 2 hrs): 4 of 5 | patients with response of headache from moderate or severe to none or mild ([3]; of 5 patients, 2 hrs): 4 of the 5 | patients who had nausea ([3]; of 5 patients, 4 hrs): all had relief of nausea | patients who had relief of phonophobia ([3]; of 5 patients, 4 hrs): all had relief | patients who had relief of photophobia ([3]; of 5 patients, 4 hrs): all had relief | patients with response of headache from moderate or severe to none or mild ([3]; of 5 patients, 4 hrs): 4 of the 5 | patients who had nausea ([3]; of 5 patients, baseline): 4 of 5 | patients who had photophobia ([3]; of 5 patients, baseline): all had photophobia | % experiencing Photophobia [4]: 60%
